Measured values as given in paper PMC5218480 (PLoS ONE, 2017).

Tested on: MV-4-11 cells
Assay: Gene expression microarray analysis (Affymetrix PrimeView) and GSEA
Type: cell-based, human
Design: RFU PODN (11730768_x_at) / Fold change /veh PODN (11730768_x_at) / RFU LINC00158 (11744669_a_at) / Fold change /veh LINC00158 (11744669_a_at) / RFU DUSP10 (11751237_a_at) / Fold change /veh DUSP10 (11751237_a_at) / RFU ID3 (11757404_x_at) / Fold change /veh ID3 (11757404_x_at) / RFU PLEKHG5 (11737974_s_at) / Fold change /veh PLEKHG5 (11737974_s_at) / RFU LRRC4B (11730491_at) / Fold change /veh LRRC4B (11730491_at) / RFU GIMAP4 (11747438_a_at) / Fold change /veh GIMAP4 (11747438_a_at) / RFU KRT8 (11758183_x_at) / Fold change /veh KRT8 (11758183_x_at) / RFU CNN1 (11734310_a_at) / Fold change /veh CNN1 (11734310_a_at) / RFU VPS37D (11726825_at) / Fold change /veh VPS37D (11726825_at) / RFU C10orf10 (11716522_x_at) / Fold change /veh C10orf10 (11716522_x_at) / RFU KIR2DL2 /// KIR2DL4 /// KIR2DL5A /// KIR2DL5B /// KIR2DS1 /// KIR2DS2 /// KIR2DS3 /// KIR2DS4 /// KIR3DL3 /// KIR3DL3 /// KIR3DS1 (11738374_at) / Fold change /veh KIR2DL2 /// KIR2DL4 /// KIR2DL5A /// KIR2DL5B /// KIR2DS1 /// KIR2DS2 /// KIR2DS3 /// KIR2DS4 /// KIR3DL3 /// KIR3DL3 /// KIR3DS1 (11738374_at) / RFU C1QL1 (11718748_at) / Fold change /veh C1QL1 (11718748_at) / RFU TMPRSS4 (11747572_a_at) / Fold change /veh TMPRSS4 (11747572_a_at) / RFU HAMP (11756126_x_at) / Fold change /veh HAMP (11756126_x_at) / RFU RNFT2 (11725882_a_at) / Fold change /veh RNFT2 (11725882_a_at) / RFU NR4A2 (11747474_a_at) / Fold change /veh NR4A2 (11747474_a_at) / RFU ABCC12 (11746883_a_at) / Fold change /veh ABCC12 (11746883_a_at) / RFU TMEM136 (11760407_x_at) / Fold change /veh TMEM136 (11760407_x_at) / RFU CLDN22 /// WWC2 (11732394_at) / Fold change /veh CLDN22 /// WWC2 (11732394_at) / RFU HLA-DPB1 (11760878_x_at) / Fold change /veh HLA-DPB1 (11760878_x_at) / RFU SPINT1 (11716480_a_at) / Fold change /veh SPINT1 (11716480_a_at) / RFU GAP43 (11754022_s_at) / Fold change /veh GAP43 (11754022_s_at) / RFU A4GNT (11735810_at) / Fold change /veh A4GNT (11735810_at) / RFU PRB3 (11715151_x_at) / Fold change /veh PRB3 (11715151_x_at) / RFU TUBB4B (11761932_at) / Fold change /veh TUBB4B (11761932_at) / RFU CAPN14 (11732068_a_at) / Fold change /veh CAPN14 (11732068_a_at) / RFU TMCC2 (11721928_a_at) / Fold change /veh TMCC2 (11721928_a_at) / RFU IRGQ (11745062_a_at) / Fold change /veh IRGQ (11745062_a_at) / RFU FAM174B (11720279_a_at) / Fold change /veh FAM174B (11720279_a_at) / RFU TMPRSS4 (11748680_a_at) / Fold change /veh TMPRSS4 (11748680_a_at) / RFU FAM212B (11763350_a_at) / Fold change /veh FAM212B (11763350_a_at) / RFU PLEKHG5 (11743358_a_at) / Fold change /veh PLEKHG5 (11743358_a_at) / RFU ZSCAN30 (11745921_a_at) / Fold change /veh ZSCAN30 (11745921_a_at) / RFU CMKLR1 (11741424_a_at) / Fold change /veh CMKLR1 (11741424_a_at) / RFU LOC101060620 /// MAPK8IP1 (11723275_at) / Fold change /veh LOC101060620 /// MAPK8IP1 (11723275_at) / RFU SPTSSB (11747773_x_at) / Fold change /veh SPTSSB (11747773_x_at) / RFU PRSS12 (11739890_at) / Fold change /veh PRSS12 (11739890_at) / RFU BIN1 (11741810_x_at) / Fold change /veh BIN1 (11741810_x_at) / RFU WNT11 (11732464_a_at) / Fold change /veh WNT11 (11732464_a_at) / RFU C10orf10 (11716521_a_at) / Fold change /veh C10orf10 (11716521_a_at) / RFU C5orf56 (11738089_at) / Fold change /veh C5orf56 (11738089_at) / RFU CYB561 (11721691_x_at) / Fold change /veh CYB561 (11721691_x_at) / RFU ANKRD19P (11752326_a_at) / Fold change /veh ANKRD19P (11752326_a_at) / RFU OR2T12 /// OR2T33 /// OR2T8 (11738714_s_at) / Fold change /veh OR2T12 /// OR2T33 /// OR2T8 (11738714_s_at) / RFU VCAN (11748164_a_at) / Fold change /veh VCAN (11748164_a_at) / RFU JSRP1 (11732532_at) / Fold change /veh JSRP1 (11732532_at) / RFU KRTAP10-11 (11738290_x_at) / Fold change /veh KRTAP10-11 (11738290_x_at) / RFU MYO3A (11730013_a_at) / Fold change /veh MYO3A (11730013_a_at) / RFU EBF3 (11725865_a_at) / Fold change /veh EBF3 (11725865_a_at) / RFU CAMK2N1 (11719241_x_at) / Fold change /veh CAMK2N1 (11719241_x_at) / RFU C5orf56 (11738088_a_at) / Fold change /veh C5orf56 (11738088_a_at) / RFU OLFML3 (11715873_a_at) / Fold change /veh OLFML3 (11715873_a_at) / RFU LOC100653217 /// NTM (11731650_a_at) / Fold change /veh LOC100653217 /// NTM (11731650_a_at) / RFU MAPK11 (11762145_a_at) / Fold change /veh MAPK11 (11762145_a_at) / RFU FIZ1 (11724087_x_at) / Fold change /veh FIZ1 (11724087_x_at) / RFU OASL (11726364_x_at) / Fold change /veh OASL (11726364_x_at) / RFU SOX15 (11748057_x_at) / Fold change /veh SOX15 (11748057_x_at) / RFU CD79A (11719716_a_at) / Fold change /veh CD79A (11719716_a_at) / RFU HIST1H1D (11736915_at) / Fold change /veh HIST1H1D (11736915_at) / RFU CASKIN2 (11723855_a_at) / Fold change /veh CASKIN2 (11723855_a_at) / RFU LOC730098 (11760151_x_at) / Fold change /veh LOC730098 (11760151_x_at) / RFU OR4N2 (11742367_at) / Fold change /veh OR4N2 (11742367_at) / RFU PRRT2 (11749266_a_at) / Fold change /veh PRRT2 (11749266_a_at) / RFU SNX32 (11753110_a_at) / Fold change /veh SNX32 (11753110_a_at) / RFU CDHR5 (11726645_a_at) / Fold change /veh CDHR5 (11726645_a_at) / RFU RCAN1 (11760418_a_at) / Fold change /veh RCAN1 (11760418_a_at) / RFU FAM167A (11723789_a_at) / Fold change /veh FAM167A (11723789_a_at) / RFU FAM26E (11764081_at) / Fold change /veh FAM26E (11764081_at) / RFU ISYNA1 (11749810_s_at) / Fold change /veh ISYNA1 (11749810_s_at) / RFU ACY1 (11761880_at) / Fold change /veh ACY1 (11761880_at) / RFU 11764098_at / Fold change /veh 11764098_at / RFU SAMD14 (11745864_x_at) / Fold change /veh SAMD14 (11745864_x_at) / RFU NPB (11741838_a_at) / Fold change /veh NPB (11741838_a_at) / RFU TMPRSS6 (11731388_a_at) / Fold change /veh TMPRSS6 (11731388_a_at) / RFU KRTAP10-2 (11738614_at) / Fold change /veh KRTAP10-2 (11738614_at) / RFU ARHGAP8 /// PRR5-ARHGAP8 (11727945_x_at) / Fold change /veh ARHGAP8 /// PRR5-ARHGAP8 (11727945_x_at) / RFU KRTAP5-7 /// NADSYN1 (11734609_at) / Fold change /veh KRTAP5-7 /// NADSYN1 (11734609_at) / RFU RASL12 (11751679_a_at) / Fold change /veh RASL12 (11751679_a_at) / RFU CDKN2B (11736163_a_at) / Fold change /veh CDKN2B (11736163_a_at) / RFU PRF1 (11729649_at) / Fold change /veh PRF1 (11729649_at) / RFU, ZNF638 /// ZNF638-IT1 / Fold change vs veh, ZNF638 /// ZNF638-IT1 / RFU, PANK3 / Fold change vs veh, PANK3 / RFU, SH3YL1 / Fold change vs veh, SH3YL1 / RFU, ZEB2 / Fold change vs veh, ZEB2 / RFU, NRIP1 / Fold change vs veh, NRIP1 / RFU, PTTG1IP / Fold change vs veh, PTTG1IP / RFU, CAPN2 / Fold change vs veh, CAPN2 / RFU, MED14 / Fold change vs veh, MED14 / RFU, SNORA58 / Fold change vs veh, SNORA58 / RFU, C1orf63 / Fold change vs veh, C1orf63 / RFU, LRRFIP1 / Fold change vs veh, LRRFIP1 / RFU, NDUFAF7 / Fold change vs veh, NDUFAF7 / RFU, SLC12A2 / Fold change vs veh, SLC12A2 / RFU, IBTK / Fold change vs veh, IBTK / RFU, ESF1 / Fold change vs veh, ESF1 / Fold change vs veh, TMEM50B / RFU, TAOK1 / Fold change vs veh, TAOK1 / RFU, ACBD3 / Fold change vs veh, ACBD3 / RFU, TMA16 / Fold change vs veh, TMA16 / RFU, RWDD3 / Fold change vs veh, RWDD3 / RFU, BCAT1 / Fold change vs veh, BCAT1 / RFU, EDEM3 / Fold change vs veh, EDEM3 / RFU, TMEM33 / Fold change vs veh, TMEM33 / RFU, WDR75 / Fold change vs veh, WDR75 / RFU, AHCTF1 / Fold change vs veh, AHCTF1 / RFU, TFRC / Fold change vs veh, TFRC / RFU, ZDHHC17 / Fold change vs veh, ZDHHC17 / RFU, NOM1 / Fold change vs veh, NOM1 / RFU, ARL8B / Fold change vs veh, ARL8B / RFU, ZBTB11 / Fold change vs veh, ZBTB11 / RFU, TAMM41 / Fold change vs veh, TAMM41 / RFU, KIAA1704 /// LOC100996395 / Fold change vs veh, KIAA1704 /// LOC100996395 / RFU, ING1 / Fold change vs veh, ING1 / RFU, TRMT61B / Fold change vs veh, TRMT61B / RFU, FUBP3 / Fold change vs veh, FUBP3 / RFU, TP53 / Fold change vs veh, TP53 / RFU, TNKS2 / Fold change vs veh, TNKS2 / RFU, ZFP14 / Fold change vs veh, ZFP14 / RFU, ACTR2 / Fold change vs veh, ACTR2 / RFU, PPP3R1 / Fold change vs veh, PPP3R1 / RFU, PIK3R1 / Fold change vs veh, PIK3R1 / RFU, HNRNPA1 / Fold change vs veh, HNRNPA1 / RFU, RNF170 / Fold change vs veh, RNF170 / RFU, ZNF28 / Fold change vs veh, ZNF28 / RFU, RNGTT / Fold change vs veh, RNGTT / RFU, OGT / Fold change vs veh, OGT / RFU, BRD1 / Fold change vs veh, BRD1 / RFU, MARS / Fold change vs veh, MARS / RFU, ZNF655 / Fold change vs veh, ZNF655 / RFU, FAHD1 / Fold change vs veh, FAHD1 / RFU, BDP1 / Fold change vs veh, BDP1 / RFU, LRRCC1 / Fold change vs veh, LRRCC1 / RFU, ARID1A / Fold change vs veh, ARID1A / RFU, ZNF146 / Fold change vs veh, ZNF146 / RFU, ZNF330 / Fold change vs veh, ZNF330 / RFU, GPN3 / Fold change vs veh, GPN3 / RFU, C9orf123 / Fold change vs veh, C9orf123 / RFU, N4BP2L2 / Fold change vs veh, N4BP2L2 / RFU, ARFIP1 / Fold change vs veh, ARFIP1 / RFU, FAM179B / Fold change vs veh, FAM179B / RFU, BCL10 / Fold change vs veh, BCL10 / RFU, UHRF1BP1L / Fold change vs veh, UHRF1BP1L / RFU, BET1 / Fold change vs veh, BET1 / RFU, CNOT2 / Fold change vs veh, CNOT2 / RFU, ZNF268 / Fold change vs veh, ZNF268 / Fold change vs veh, ZNF507 / RFU, DGCR2 / Fold change vs veh, DGCR2 / RFU, WDSUB1 / Fold change vs veh, WDSUB1 / Fold change vs veh, HSP90B1 /// MIR3652 / RFU, ADSS / Fold change vs veh, ADSS / RFU, GK / Fold change vs veh, GK / RFU, ZNF148 / Fold change vs veh, ZNF148 / RFU, TAF9 / Fold change vs veh, TAF9 / RFU, SLC1A5 / Fold change vs veh, SLC1A5 / RFU, SLMO2 / Fold change vs veh, SLMO2 / RFU, ABCC4 / Fold change vs veh, ABCC4 / RFU, LOC101060439 /// RAP1B / Fold change vs veh, LOC101060439 /// RAP1B / RFU, RFX7 / Fold change vs veh, RFX7 / RFU, GTPBP10 / Fold change vs veh, GTPBP10 / RFU, CNEP1R1 / Fold change vs veh, CNEP1R1 / RFU, BIVM-ERCC5 /// ERCC5 / Fold change vs veh, BIVM-ERCC5 /// ERCC5 / RFU, ILF3 / Fold change vs veh, ILF3 / RFU 11762660_at / Fold change /veh 11762660_at / RFU VCAN (11757783_s_at) / Fold change /veh VCAN (11757783_s_at) / RFU DDX43 (11728927_at) / Fold change /veh DDX43 (11728927_at) / RFU KRT8 (11758188_x_at) / Fold change /veh KRT8 (11758188_x_at) / RFU NKD1 (11759106_at) / Fold change /veh NKD1 (11759106_at) / RFU SRD5A1 (11742802_a_at) / Fold change /veh SRD5A1 (11742802_a_at) / RFU TPSAB1 /// TPSB2 (11721975_s_at) / Fold change /veh TPSAB1 /// TPSB2 (11721975_s_at) / RFU GSTM3 (11746129_a_at) / Fold change /veh GSTM3 (11746129_a_at) / RFU IL23R (11737362_x_at) / Fold change /veh IL23R (11737362_x_at) / RFU TMEM51 (11727254_a_at) / Fold change /veh TMEM51 (11727254_a_at) / RFU PIWIL2 (11732686_x_at) / Fold change /veh PIWIL2 (11732686_x_at) / RFU ORM1 (11744905_x_at) / Fold change /veh ORM1 (11744905_x_at) / RFU CCDC152 (11743942_at) / Fold change /veh CCDC152 (11743942_at) / RFU ECM1 (11717891_a_at) / Fold change /veh ECM1 (11717891_a_at) / RFU IL23R (11748794_a_at) / Fold change /veh IL23R (11748794_a_at) / RFU TNFAIP8L3 (11732012_x_at) / Fold change /veh TNFAIP8L3 (11732012_x_at) / RFU MBOAT4 (11741988_at) / Fold change /veh MBOAT4 (11741988_at) / RFU 11764193_at / Fold change /veh 11764193_at / RFU TMEM53 (11763286_at) / Fold change /veh TMEM53 (11763286_at) / RFU MAGEB2 (11727129_at) / Fold change /veh MAGEB2 (11727129_at) / RFU TMEM200A (11744735_a_at) / Fold change /veh TMEM200A (11744735_a_at) / RFU CCDC152 (11751479_a_at) / Fold change /veh CCDC152 (11751479_a_at) / RFU FAM211A (11726209_a_at) / Fold change /veh FAM211A (11726209_a_at) / RFU RGS16 (11746705_a_at) / Fold change /veh RGS16 (11746705_a_at) / RFU VCAN (11755009_s_at) / Fold change /veh VCAN (11755009_s_at) / RFU RHOB (11743442_s_at) / Fold change /veh RHOB (11743442_s_at) / RFU RGS16 (11720943_a_at) / Fold change /veh RGS16 (11720943_a_at) / RFU RGS16 (11720944_at) / Fold change /veh RGS16 (11720944_at) / RFU, VPS4B / Fold change vs veh, VPS4B / RFU, CREB1 / Fold change vs veh, CREB1 / RFU, DNAJC13 / Fold change vs veh, DNAJC13 / RFU, GNAQ / Fold change vs veh, GNAQ / RFU, CDK5R1 / Fold change vs veh, CDK5R1 / RFU, ZRANB3 / Fold change vs veh, ZRANB3 / RFU, CUL4A / Fold change vs veh, CUL4A / RFU, CCNY / Fold change vs veh, CCNY / RFU, UFL1 / Fold change vs veh, UFL1 / RFU, COG3 / Fold change vs veh, COG3 / RFU, DIAPH2 / Fold change vs veh, DIAPH2 / RFU, SKA2 / Fold change vs veh, SKA2 / RFU, AFF3 / Fold change vs veh, AFF3 / RFU, LMF1 / Fold change vs veh, LMF1 / RFU, IPO11 / Fold change vs veh, IPO11 / RFU, DFFB / Fold change vs veh, DFFB / RFU, FOXP1 / Fold change vs veh, FOXP1 / RFU, CARD8 / Fold change vs veh, CARD8 / RFU, STRN3 / Fold change vs veh, STRN3 / RFU, ADK / Fold change vs veh, ADK / RFU, RASSF2 / Fold change vs veh, RASSF2 / RFU, WIPF1 / Fold change vs veh, WIPF1 / RFU, LARP1B / Fold change vs veh, LARP1B / RFU, RASA1 / Fold change vs veh, RASA1 / RFU, RB1 / Fold change vs veh, RB1 / RFU, PPFIA1 / Fold change vs veh, PPFIA1 / RFU, MAT2A / Fold change vs veh, MAT2A / RFU, CCT5 / Fold change vs veh, CCT5 / RFU, WDR92 / Fold change vs veh, WDR92 / RFU, CUX1 / Fold change vs veh, CUX1 / RFU, TTC7A / Fold change vs veh, TTC7A / RFU, TMEM135 / Fold change vs veh, TMEM135 / RFU, DEPTOR / Fold change vs veh, DEPTOR / RFU, CPM / Fold change vs veh, CPM / RFU, DNAJB6 / Fold change vs veh, DNAJB6 / RFU, CACNA2D3 / Fold change vs veh, CACNA2D3 / RFU, DTX4 / Fold change vs veh, DTX4 / RFU, TFCP2 / Fold change vs veh, TFCP2 / RFU, GMCL1 /// GMCL1P1 / Fold change vs veh, GMCL1 /// GMCL1P1 / RFU, AEBP2 / Fold change vs veh, AEBP2 / RFU, SNHG1 /// SNORD22 /// SNORD25 /// SNORD26 /// SNORD27 /// SNORD28 /// SNORD29 /// SNORD31 / Fold change vs veh, SNHG1 /// SNORD22 /// SNORD25 /// SNORD26 /// SNORD27 /// SNORD28 /// SNORD29 /// SNORD31 / Fold change (Aza/veh), C12orf56 (ProbeSet 11735607_a_at) / Fold change (ACY-1035/veh), C12orf56 (ProbeSet 11735607_a_at) / Fold change (Aza/veh), FGFR1OP (ProbeSet 11751329_s_at) / Fold change (ACY-1035/veh), FGFR1OP (ProbeSet 11751329_s_at) / Fold change (Aza/veh), VPS36 (ProbeSet 11739960_a_at) / Fold change (ACY-1035/veh), VPS36 (ProbeSet 11739960_a_at) / RFU SYPL1 (11715823_x_at) / Fold change /veh SYPL1 (11715823_x_at) / RFU IGFBP7 (11715501_s_at) / Fold change /veh IGFBP7 (11715501_s_at) / RFU REEP3 (11722064_at) / Fold change /veh REEP3 (11722064_at) / RFU IGLL1 (11728026_x_at) / Fold change /veh IGLL1 (11728026_x_at): dose or concentration left out as unconfirmed
Conditions: ProbeSet 11725217_a_at; LIST B

Structure (SMILES): Nc1ncn([C@@H]2O[C@H](CO)[C@@H](O)[C@H]2O)c(=O)n1 [azacitidine]
- Fold change vs veh, WDSUB1: 0.86
